Results taken from article PMC10140010 (Investigational New Drugs, 2023).
Values joined by “and” are separate entries in the source; they are usually repeats but may differ in a detail not shown here. Equal values may be shown once. “Also recorded” adds a separate entry of the source.

Columns and labels:
BCRP = molecular target: T1, BCRP (Homo sapiens, UniProt Q9UNQ0); assay: ABC efflux transporter inhibitor test on Caco-2 cells (E3S efflux)
T1 sequence (Q9UNQ0 1-655): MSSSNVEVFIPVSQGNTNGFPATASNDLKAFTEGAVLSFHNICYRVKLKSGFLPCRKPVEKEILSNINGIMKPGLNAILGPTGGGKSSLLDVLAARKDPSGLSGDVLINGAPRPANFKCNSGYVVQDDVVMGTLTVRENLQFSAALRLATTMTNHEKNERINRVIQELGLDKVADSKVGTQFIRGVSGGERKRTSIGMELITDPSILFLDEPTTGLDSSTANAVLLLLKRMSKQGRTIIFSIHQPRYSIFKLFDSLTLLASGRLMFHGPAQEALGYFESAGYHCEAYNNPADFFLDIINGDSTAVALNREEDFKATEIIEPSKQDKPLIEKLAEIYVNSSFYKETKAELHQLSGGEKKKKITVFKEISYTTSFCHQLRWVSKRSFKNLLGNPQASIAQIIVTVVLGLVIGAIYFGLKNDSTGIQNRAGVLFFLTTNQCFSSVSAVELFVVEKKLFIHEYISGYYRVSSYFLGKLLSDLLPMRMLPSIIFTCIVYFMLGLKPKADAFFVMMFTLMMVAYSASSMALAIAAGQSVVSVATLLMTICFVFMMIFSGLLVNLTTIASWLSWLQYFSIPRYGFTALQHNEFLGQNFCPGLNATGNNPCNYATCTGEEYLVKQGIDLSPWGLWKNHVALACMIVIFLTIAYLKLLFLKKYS

P-gp = molecular target: T2, P-gp (Homo sapiens, UniProt P08183); assay: ABC efflux transporter inhibitor test on Caco-2 cells (digoxin efflux); assay type: in vitro ADME
T2 construct: endogenous in cells; host or cells: Caco-2

[1] = Plasma protein binding rate (dialysis); assay type: in vitro ADME
Description: At three test concentrations (0.2, 2 and 10 µM), the plasma protein binding rate of iruplinalkib is as follows (Fig. 3a). […] With the increase of concentration, the protein binding rates of iruplinalkib in rat plasma decreased gradually, showing a certain concentration dependence, and there was no concentration dependence of protein binding rate observed in other species plasma.

AUR2 = AUR2 (Homo sapiens, UniProt O14965); assay: Z'-LYTE kinase selectivity; assay type: biochemical
[2] = set-up: method as in PMID 35087031; conditions: 180 mg, once daily, patients; cited from earlier work
ALK^WT = ALK^WT (Homo sapiens, UniProt Q9UM73); assay: HTRF kinase activity assay; assay type: biochemical
Description: After the kinase proteins, Ulight-peptide species, adenosine triphosphate (ATP), and compound were mixed, the reaction was carried out at room temperature. Reactions were quenched by the addition of ethylene diamine tetraacetic acid buffer containing Eu antibody and XL665-streptavidin at the indicated time points. Plate reading was performed using an Envision (Perkin Elmer, MA, USA) multifunctional microplate reader.

MATE1 = molecular target: T3, MATE1 (Homo sapiens, UniProt Q96FL8); assay: in vitro
T3 sequence (Q96FL8 1-570): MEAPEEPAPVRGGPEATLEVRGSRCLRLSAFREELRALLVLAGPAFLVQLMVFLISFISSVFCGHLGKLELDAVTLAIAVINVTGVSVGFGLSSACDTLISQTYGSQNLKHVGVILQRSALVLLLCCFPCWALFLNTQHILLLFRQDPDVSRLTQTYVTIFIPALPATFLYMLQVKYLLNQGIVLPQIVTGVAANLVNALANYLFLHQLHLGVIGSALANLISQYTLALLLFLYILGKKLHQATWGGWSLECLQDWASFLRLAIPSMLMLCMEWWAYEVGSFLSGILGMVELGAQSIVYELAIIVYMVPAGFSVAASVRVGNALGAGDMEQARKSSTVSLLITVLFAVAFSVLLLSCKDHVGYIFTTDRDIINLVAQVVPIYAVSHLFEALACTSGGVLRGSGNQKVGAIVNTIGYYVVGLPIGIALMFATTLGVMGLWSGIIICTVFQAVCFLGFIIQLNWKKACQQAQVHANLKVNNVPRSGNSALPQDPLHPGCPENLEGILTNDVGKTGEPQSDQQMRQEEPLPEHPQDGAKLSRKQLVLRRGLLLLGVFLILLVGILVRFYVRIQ
Description: Using a stably transfected cell line of HEK293 expressing transporter OATP1B1, OATP1B3 or OCT2, formal substrate investigation tests were performed for three concentration gradients (30 µM, 3 µM, 0.3 µM) of iruplinalkib.

OCT2 = molecular target: T4, OCT2 (Homo sapiens, UniProt O15244); assay: Uptake substrate investigation in HEK293 cells expressing transporter; assay type: in vitro ADME; conditions: for Uptake transport activity, Mean / Ratio of uptake transit activity / Uptake transport activity, Net value: Suppl. Table 11; for Ratio of uptake transit activity / Uptake transport activity, Net value: OCT2-293 vs MOCK293
T4 construct: No ESH9G27; host or cells: HEK293
T4 sequence (O15244 1-555): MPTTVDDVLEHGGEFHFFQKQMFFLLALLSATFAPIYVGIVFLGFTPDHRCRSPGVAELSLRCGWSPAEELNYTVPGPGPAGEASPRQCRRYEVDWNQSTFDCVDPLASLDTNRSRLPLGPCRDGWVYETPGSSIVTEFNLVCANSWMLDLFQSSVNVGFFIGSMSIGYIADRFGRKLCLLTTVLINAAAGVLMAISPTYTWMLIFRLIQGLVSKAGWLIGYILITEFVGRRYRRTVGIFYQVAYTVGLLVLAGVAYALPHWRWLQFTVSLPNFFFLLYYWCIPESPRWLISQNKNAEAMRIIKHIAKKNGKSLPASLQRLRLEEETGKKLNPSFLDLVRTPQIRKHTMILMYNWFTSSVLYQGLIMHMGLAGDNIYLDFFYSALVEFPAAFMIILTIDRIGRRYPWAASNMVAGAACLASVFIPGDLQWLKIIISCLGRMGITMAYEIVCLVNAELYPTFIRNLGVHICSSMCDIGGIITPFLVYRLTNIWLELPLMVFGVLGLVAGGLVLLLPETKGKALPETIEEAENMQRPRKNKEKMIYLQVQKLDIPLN

[3] = human, Caco-2 cells, probe E3S (10 µM)
[4] = human, Caco-2 cells, probe digoxin (5 µM), read-out: Exhaust inhibition rate (%)

T2 sequence (P08183 whole entry): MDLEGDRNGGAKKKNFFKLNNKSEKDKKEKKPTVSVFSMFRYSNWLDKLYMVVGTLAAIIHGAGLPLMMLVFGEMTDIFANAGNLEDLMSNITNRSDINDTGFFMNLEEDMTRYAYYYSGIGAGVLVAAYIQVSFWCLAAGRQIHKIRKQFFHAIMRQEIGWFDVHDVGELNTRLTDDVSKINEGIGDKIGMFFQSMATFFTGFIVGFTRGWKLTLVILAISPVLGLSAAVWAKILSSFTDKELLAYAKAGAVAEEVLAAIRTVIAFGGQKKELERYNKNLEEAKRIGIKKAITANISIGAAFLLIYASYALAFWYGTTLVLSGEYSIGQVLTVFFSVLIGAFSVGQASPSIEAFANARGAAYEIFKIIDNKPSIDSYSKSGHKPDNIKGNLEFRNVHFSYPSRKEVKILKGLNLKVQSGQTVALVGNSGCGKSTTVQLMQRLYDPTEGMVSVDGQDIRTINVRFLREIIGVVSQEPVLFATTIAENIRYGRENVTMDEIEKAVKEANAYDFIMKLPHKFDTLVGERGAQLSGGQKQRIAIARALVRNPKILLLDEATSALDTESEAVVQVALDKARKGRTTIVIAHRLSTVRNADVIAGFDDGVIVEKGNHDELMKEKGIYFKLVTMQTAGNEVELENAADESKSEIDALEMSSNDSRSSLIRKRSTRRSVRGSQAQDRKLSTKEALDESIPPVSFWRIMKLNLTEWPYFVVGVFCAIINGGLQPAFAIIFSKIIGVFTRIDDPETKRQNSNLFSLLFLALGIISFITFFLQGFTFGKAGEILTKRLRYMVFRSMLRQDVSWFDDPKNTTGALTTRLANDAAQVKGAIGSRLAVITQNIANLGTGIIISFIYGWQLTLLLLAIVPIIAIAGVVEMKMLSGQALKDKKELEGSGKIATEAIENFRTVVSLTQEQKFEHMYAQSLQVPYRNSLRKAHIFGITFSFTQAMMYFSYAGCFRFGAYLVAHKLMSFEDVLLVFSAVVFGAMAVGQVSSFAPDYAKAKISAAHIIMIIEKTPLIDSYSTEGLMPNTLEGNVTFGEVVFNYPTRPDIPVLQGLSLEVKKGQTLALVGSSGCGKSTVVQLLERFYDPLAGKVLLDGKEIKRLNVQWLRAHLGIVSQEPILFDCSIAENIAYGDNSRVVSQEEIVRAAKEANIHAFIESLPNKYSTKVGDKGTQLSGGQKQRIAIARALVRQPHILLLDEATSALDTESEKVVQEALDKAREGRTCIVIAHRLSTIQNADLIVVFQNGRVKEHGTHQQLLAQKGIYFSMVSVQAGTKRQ
Chain of ALK^WT (Q9UM73 19-1620): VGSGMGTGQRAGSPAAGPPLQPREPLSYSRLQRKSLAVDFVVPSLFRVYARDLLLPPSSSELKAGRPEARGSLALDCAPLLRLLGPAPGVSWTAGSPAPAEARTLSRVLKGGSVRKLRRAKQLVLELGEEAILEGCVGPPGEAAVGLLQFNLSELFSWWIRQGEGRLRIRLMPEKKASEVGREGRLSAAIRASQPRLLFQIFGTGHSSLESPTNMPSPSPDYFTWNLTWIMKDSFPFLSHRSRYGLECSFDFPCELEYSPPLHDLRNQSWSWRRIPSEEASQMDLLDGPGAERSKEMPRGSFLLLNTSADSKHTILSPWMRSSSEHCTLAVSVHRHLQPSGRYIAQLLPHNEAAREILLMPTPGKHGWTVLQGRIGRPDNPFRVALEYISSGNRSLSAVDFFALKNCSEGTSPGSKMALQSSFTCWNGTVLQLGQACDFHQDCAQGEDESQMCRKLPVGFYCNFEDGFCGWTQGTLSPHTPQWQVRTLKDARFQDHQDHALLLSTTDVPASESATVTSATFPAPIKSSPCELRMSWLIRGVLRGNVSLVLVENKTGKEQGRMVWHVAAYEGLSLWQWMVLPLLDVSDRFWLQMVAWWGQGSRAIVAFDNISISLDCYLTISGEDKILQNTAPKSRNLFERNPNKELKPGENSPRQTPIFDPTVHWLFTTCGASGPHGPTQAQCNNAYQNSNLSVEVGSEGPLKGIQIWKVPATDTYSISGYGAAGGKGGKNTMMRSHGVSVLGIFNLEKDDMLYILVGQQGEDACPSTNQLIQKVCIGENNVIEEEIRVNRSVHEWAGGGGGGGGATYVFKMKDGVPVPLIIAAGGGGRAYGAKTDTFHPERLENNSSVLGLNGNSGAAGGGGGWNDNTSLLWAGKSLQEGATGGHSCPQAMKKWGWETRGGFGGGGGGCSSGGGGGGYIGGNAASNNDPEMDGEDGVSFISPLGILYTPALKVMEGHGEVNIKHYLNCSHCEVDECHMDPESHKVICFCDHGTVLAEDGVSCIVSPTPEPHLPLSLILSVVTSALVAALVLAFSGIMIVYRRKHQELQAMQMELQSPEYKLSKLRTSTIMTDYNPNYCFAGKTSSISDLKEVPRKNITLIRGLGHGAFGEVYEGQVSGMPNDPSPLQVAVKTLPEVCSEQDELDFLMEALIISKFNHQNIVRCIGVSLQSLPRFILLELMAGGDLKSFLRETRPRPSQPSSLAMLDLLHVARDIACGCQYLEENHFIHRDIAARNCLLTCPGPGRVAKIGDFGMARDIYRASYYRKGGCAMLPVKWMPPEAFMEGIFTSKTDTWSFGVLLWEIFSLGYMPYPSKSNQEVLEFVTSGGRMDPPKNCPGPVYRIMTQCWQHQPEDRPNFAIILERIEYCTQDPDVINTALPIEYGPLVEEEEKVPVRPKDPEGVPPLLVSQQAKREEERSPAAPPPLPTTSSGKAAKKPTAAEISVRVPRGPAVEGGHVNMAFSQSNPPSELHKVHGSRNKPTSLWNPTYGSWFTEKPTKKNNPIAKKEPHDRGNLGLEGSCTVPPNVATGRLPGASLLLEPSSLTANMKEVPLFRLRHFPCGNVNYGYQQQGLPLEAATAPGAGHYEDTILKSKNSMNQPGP
Chain of AUR2 (O14965 whole entry): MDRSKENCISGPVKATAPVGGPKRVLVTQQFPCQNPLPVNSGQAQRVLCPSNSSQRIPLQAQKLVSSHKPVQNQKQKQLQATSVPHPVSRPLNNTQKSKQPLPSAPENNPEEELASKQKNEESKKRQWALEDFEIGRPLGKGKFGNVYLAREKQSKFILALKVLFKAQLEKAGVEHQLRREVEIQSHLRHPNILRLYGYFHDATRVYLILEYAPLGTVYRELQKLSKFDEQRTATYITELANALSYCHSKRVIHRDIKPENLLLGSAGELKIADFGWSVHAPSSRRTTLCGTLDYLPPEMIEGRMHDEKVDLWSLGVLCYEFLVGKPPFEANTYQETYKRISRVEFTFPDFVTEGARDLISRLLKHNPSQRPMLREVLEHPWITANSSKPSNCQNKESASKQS

## COc1cc(N2CCC3(CCN(C)CC3)CC2)ccc1Nc1ncc(Cl)c(Nc2ccccc2P(C)(C)=O)n1 [Iruplinalkib]
BCRP; Caco-2
  BCRP inhibitor: BCRP inhibitor
BCRP; [3]
  inhibition at 0.1 μM: -11.1%
  inhibition at 0.3 μM: 37.7%
  inhibition at 1 μM: 8.3%
  inhibition at 3 μM: 50.9%
  inhibition at 10 µM: 97.2%
  inhibition at 30 μM: 26.3%
P-gp; Caco-2
  P-gp inhibitor: strong inhibitor
P-gp; [4]
  inhibition at 0.1 μM: -30.9%
  inhibition at 0.3 μM: 3.97%
  inhibition at 1 μM: -13.2%
  inhibition at 3 μM: -19.1%
  inhibition at 10 µM: 89.8%
  inhibition at 30 μM: 98.7%
[1]; 0.2 µM, SD rats plasma
  plasma protein binding rate: high protein binding rate
[1]; 0.2, 2 and 10 µM, Beagle dogs plasma
  plasma protein binding rate: medium protein binding rate
[1]; 0.2, 2 and 10 µM, CD-1 mice plasma
  plasma protein binding rate: medium protein binding rate
[1]; 0.2, 2 and 10 µM, Macaca fascicularis plasma
  plasma protein binding rate: medium protein binding rate
[1]; 0.2, 2 and 10 µM, SD rats plasma
  plasma protein binding rate: medium protein binding rate
[1]; 0.2, 2 and 10 µM, human plasma
  plasma protein binding rate: medium protein binding rate; also recorded: moderate
AUR2
  IC50: 1080 ± 106 nM
[2]
  free steady-state average concentration (Cavg,ss): 127 nM
ALK^WT
  IC50: 5.38 nM and < 10 nM
MATE1
  inhibition at 0.5 μM: 46.4%
  inhibition at 5 μM: 94.5%
  inhibition at 50 μM: 112%
OCT2; 30 µM, 3 µM, 0.3 µM, HEK293
  uptake transport activity ratio, OCT2: less than two
OCT2; HEK293
  uptake substrate of OCT2: not an uptake substrate
OCT2; MOCK293 (OCT2 set), 0.3 μM
  Uptake transport activity, Mean: 7.280 pmol/mg protein/min
OCT2; MOCK293 (OCT2 set), 3 μM
  Uptake transport activity, Mean: 80.35 pmol/mg protein/min
OCT2; MOCK293 (OCT2 set), 30 μM
  Uptake transport activity, Mean: 999.8 pmol/mg protein/min
OCT2; OCT2-293, 0.3 μM
  Uptake transport activity, Mean: 8.178 pmol/mg protein/min
OCT2; OCT2-293, 3 μM
  Uptake transport activity, Mean: 88.23 pmol/mg protein/min
OCT2; OCT2-293, 30 μM
  Uptake transport activity, Mean: 1165.9 pmol/mg protein/min
OCT2; 0.3 μM
  Ratio of uptake transit activity: 1.12
  Uptake transport activity, Net value: 0.90 pmol/mg protein/min
OCT2; 3 μM
  Ratio of uptake transit activity: 1.10
  Uptake transport activity, Net value: 7.88 pmol/mg protein/min
OCT2; 30 μM
  Ratio of uptake transit activity: 1.17
  Uptake transport activity, Net value: 166.05 pmol/mg protein/min
